Read-outs that look alike come from different tables or passages of the source.
Key:
Test in all cases: NanoBRET target engagement
Type in all cases: cell-based
EpHB1 = biological target: T1, EpHB1 (Homo sapiens, UniProt P54762)
T1 sequence (P54762 18-984): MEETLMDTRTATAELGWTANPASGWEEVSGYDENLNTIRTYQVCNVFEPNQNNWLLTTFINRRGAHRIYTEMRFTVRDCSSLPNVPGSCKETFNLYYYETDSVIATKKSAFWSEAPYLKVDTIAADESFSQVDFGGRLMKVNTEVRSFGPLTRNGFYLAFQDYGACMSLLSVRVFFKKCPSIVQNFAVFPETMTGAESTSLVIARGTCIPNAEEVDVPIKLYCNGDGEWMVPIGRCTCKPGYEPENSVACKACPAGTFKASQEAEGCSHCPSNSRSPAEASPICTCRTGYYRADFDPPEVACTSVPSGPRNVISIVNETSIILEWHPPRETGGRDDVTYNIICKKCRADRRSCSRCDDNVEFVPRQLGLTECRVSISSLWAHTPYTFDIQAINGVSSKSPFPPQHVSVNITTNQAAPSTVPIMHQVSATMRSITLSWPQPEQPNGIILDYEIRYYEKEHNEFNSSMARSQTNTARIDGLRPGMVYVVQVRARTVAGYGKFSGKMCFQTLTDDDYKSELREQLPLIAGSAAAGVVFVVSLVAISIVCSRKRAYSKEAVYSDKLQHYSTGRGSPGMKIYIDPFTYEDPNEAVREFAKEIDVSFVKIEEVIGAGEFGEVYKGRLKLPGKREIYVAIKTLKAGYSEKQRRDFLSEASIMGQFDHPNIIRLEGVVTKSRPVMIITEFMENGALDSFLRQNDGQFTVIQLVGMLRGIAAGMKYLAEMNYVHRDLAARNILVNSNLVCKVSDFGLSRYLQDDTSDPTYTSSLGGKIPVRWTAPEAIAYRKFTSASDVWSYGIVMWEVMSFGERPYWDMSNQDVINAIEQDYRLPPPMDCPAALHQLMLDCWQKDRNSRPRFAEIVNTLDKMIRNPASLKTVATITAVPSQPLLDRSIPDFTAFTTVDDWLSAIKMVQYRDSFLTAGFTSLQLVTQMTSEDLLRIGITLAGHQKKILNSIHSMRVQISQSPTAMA

EpHA1 = biological target: T2, EpHA1 (Homo sapiens, UniProt P21709)
T2 sequence (P21709 26-976): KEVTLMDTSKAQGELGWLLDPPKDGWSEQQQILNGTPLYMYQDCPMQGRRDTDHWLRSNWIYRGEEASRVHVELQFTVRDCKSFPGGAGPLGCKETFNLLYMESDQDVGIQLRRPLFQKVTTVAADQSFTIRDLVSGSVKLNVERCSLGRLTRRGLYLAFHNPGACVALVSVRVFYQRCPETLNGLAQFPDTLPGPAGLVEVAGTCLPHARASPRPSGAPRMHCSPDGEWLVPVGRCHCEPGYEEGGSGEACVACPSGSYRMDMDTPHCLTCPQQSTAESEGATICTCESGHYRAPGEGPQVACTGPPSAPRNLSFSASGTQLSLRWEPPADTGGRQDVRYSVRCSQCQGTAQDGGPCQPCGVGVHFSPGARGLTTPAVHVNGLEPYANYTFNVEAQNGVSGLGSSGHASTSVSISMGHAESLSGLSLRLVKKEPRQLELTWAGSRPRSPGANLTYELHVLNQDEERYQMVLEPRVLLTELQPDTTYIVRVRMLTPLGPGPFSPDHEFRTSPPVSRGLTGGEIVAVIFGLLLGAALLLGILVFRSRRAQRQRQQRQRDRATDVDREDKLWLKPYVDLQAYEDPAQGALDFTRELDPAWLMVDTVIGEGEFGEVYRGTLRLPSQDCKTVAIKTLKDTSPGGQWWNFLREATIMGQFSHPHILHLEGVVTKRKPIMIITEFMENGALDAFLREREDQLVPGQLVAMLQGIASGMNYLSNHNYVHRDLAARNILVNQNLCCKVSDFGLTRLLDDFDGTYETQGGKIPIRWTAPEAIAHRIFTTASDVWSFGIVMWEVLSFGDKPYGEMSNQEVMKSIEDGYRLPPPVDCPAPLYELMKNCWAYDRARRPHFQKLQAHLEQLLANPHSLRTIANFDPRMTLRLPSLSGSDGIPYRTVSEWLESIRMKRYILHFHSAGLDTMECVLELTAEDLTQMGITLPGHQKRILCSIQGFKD

EpHB4 = biological target: T3, EpHB4 (Homo sapiens, UniProt P54760)
T3 sequence (P54760 16-987): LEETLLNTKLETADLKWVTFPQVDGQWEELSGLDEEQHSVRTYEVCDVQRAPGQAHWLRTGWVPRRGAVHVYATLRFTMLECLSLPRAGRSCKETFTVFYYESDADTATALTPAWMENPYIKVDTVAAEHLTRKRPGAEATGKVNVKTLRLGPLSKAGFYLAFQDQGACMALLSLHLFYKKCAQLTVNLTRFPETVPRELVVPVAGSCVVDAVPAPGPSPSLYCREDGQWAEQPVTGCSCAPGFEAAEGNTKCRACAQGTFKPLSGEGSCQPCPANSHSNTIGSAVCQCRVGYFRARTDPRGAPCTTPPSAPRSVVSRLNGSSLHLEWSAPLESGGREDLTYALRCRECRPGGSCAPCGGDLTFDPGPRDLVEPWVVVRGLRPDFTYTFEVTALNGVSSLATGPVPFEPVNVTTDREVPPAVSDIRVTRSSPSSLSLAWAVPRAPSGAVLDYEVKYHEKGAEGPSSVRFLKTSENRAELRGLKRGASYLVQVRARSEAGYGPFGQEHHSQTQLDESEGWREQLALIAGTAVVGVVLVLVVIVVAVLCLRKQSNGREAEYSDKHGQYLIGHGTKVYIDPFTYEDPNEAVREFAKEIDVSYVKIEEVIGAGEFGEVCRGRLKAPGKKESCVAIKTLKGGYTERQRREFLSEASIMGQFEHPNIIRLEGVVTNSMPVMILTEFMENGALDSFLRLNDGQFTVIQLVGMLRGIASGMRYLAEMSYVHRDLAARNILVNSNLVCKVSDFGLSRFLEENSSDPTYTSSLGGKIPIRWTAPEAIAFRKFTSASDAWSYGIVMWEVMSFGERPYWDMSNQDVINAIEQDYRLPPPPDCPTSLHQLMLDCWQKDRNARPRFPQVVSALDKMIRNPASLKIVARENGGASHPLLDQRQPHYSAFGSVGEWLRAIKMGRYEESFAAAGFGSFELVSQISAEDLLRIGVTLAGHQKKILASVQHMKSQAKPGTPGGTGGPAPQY

EpHB3 = EpHB3 (Homo sapiens, UniProt P54753)
[1] = intact mode, HEK293T, 37 °C, 2 h, tracer displacement

Sequence of EpHB3 (P54753 34-998): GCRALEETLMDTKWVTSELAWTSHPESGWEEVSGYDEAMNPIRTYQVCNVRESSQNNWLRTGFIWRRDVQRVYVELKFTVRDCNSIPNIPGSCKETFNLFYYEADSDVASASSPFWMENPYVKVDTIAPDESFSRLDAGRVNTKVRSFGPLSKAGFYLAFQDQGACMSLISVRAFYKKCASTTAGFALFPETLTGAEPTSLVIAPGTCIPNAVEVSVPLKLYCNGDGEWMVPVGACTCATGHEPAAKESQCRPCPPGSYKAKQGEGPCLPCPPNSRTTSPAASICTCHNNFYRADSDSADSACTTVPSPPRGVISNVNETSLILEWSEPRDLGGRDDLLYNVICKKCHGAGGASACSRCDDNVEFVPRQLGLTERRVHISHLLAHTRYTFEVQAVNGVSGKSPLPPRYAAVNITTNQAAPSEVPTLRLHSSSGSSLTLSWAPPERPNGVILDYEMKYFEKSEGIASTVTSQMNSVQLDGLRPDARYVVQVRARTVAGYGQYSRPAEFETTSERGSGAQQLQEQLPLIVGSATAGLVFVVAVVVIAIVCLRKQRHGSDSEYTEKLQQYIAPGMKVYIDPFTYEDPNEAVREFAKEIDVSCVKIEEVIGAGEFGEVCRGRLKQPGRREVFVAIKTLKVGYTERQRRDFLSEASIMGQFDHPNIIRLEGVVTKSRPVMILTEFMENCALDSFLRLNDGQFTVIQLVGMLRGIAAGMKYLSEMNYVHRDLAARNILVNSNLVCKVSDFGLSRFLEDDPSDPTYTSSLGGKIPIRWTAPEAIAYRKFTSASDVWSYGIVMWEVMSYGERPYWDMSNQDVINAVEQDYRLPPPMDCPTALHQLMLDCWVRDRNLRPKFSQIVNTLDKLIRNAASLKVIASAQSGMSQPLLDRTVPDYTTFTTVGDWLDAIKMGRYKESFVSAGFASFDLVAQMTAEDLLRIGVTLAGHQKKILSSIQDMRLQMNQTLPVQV

Q: What does the source list for `CNc1ncc2cc(-c3cc(F)ccc3F)c(=O)n(CCCCN)c2n1` [compound 5, 8-(4-Aminobutyl)-6-(2,5-difluorophenyl)-2-(methylamino)pyrido[2,3-d]pyrimidin-7(8H)-one]?
A: IC50 (EpHB1; [1]): 632 ± 10 nM; IC50 (EpHA1; [1]): 145 ± 17 nM; IC50 (EpHB4; [1]): 607 ± 37 nM

Q: With `CNc1ncc2cc(-c3cc(Cl)ccc3Cl)c(=O)n(CCCCN)c2n1` [compound 8, 8-(4-Aminobutyl)-6-(2,5-dichlorophenyl)-2-(methylamino)pyrido[2,3-d]pyrimidin-7(8H)-one] as the compound, how does the IC50 (EpHB1) read?
A: The IC50 was 302 ± 26 nM.

Q: What about the IC50 (EpHB3) of the same compound?
A: The IC50 was greater than 1000 nM.

Q: And the IC50 (EpHA1)?
A: The IC50 was 82 ± 3 nM.

Q: What about the IC50 (EpHB4) of the same compound?
A: The IC50 was 188 ± 17 nM.

Q: What does the source list for `CNc1ncc2cc(-c3ccccc3Cl)c(=O)n(CCCCN)c2n1` [compound 4, 8-(4-Aminobutyl)-6-(2-chlorophenyl)-2-(methylamino)pyrido[2,3-d]pyrimidin-7(8H)-one]?
A: IC50 (EpHB1): 78 ± 2 nM; IC50 (EpHB3): > 1000 nM; IC50 (EpHA1): 12 ± 2 nM; IC50 (EpHB4): 50 ± 12 nM
